Source: patent publication US20120258117A1, “Methods and compositions for modulation of histone ubiquitination” (priority 2011, published 2012)

Experiments:
[1] = tested on: mono-ubiquitination of histone H2B at K120 (uH2B); test: Western analysis of uH2B, chronic (up to 9-day) resveratrol treatment; type: cell-based, human
Method: (§1) For short-term resveratrol treatment, cells in 60 mm dishes were allowed to grow to 40%-50% confluency. Their original media were changed to 5 ml DMEM media containing glucose (4.5 g/L) as the only carbon source (without both L-glutamine and sodium pyruvate). After one hour of media change, cells were collected as non-treated or treated with 5 μL acetone or resveratrol in 5 μL acetone vehicle for 4 hours and then collected for Western analysis. For long-term resveratrol treatment, 3×10^5 of U87 or U118 glioma cells were plated in 100 mm dishes. One day later, the culture media were replaced with fresh medium (10 mL/dish). […]
(§2) Cultured cells were harvested on ice (3-5 min) by scraping in the medium, centrifuged with about 300 relative centrifugal forces (RCF) for 2 minutes. […] Total protein was separated by 12% SDS polyacrylamide gel electrophoresis and analyzed with antibodies to H2B (Millipore, Billerica, Mass.), mono-ubiquitinated H2B (uH2B, MediMabs, Montreal, Quebec, Canada), RNF20 (Abcam, Cambridge, Mass.), p53 (Santa Cruz Biotechnology, Santa Cruz, Calif.). Immunoreactive bands were detected using SuperSignal kit (Thermo Scientific, Waltham, Mass.). […]

[2] = tested on: U118 cells; test: Cellular hypertrophy / cell morphology; type: cell-based, human; conditions: resveratrol treatment
[3] = tested on: U118 xenograft; test: Growth of human tumor xenograft from resveratrol-pretreated cells; type: in vivo, nude (nu/nu) mice; conditions: U118 treated 9 days in culture, 2×10^6 viable cells s.c. in nude mice; volume at 125 days post injection
Method: (§3) U87 or U118 Cells (2,000,000 in 0.1 ml PBS) were injected subcutaneously in the right flank of the female nude (nu/nu) mice (4-6 weeks old; Charles River Laboratories, Wilmington, Mass.). Five nude mice were used for each group. U87 tumor volume was measured at 27 days post injection while U118 tumor volume at 125 days post injection. When tumors were palpable, they were measured by a Vernier caliper in indicated days after injection. Tumor volume (TV) was calculated as follows: TV (mm^3)=LXW^2/2, where L is the longest dimension of the tumor (in mm), and W is the shortest dimension of the tumor. […] Glioma cells were then trypsinized, and 2×10^6 viable cells (by Trypan blue exclusion assay) were collected in 0.1 ml PBS. These cells were subsequently injected subcutaneously in the right flank of nude mice [female (nu/nu), 4-6 weeks old, 5 mice per group]. When the tumor was palpable, the size was measured with a Vernier caliper. Tumor volume was calculated (TV) using the formula: TV (mm^3)=LXW^2/2, in which L was the longest dimension of the tumor (in mm), and W was the shortest dimension of the tumor.

[4] = tested on: U87 xenograft; test: as above; type: in vivo, nude (nu/nu) mice; conditions: U87 treated 9 days in culture, 2×10^6 viable cells s.c. in nude mice; volume at 27 days post injection
Method: as §3

[5] = tested on: U87 cells; test: Cellular hypertrophy / cell morphology; type: cell-based, human
From the text: Specifically, resveratrol transformed spindle-shaped glioma cells to enlarged and irregular flatten-shaped ones. The mean diameter of the resveratrol-treated U87 was 5 fold longer than the diameter parallel to the spindle axis of the mock-or vehicle-treated glioma cells. In contrast, mock and vehicle (acetone) treatment had no effect on inducing cellular hypertrophy.
It was then examined whether depletion of RNF20 could induce cellular senescence in glioma cells. Depletion of RNF20 induced similar cellular hypertrophy as observed with resveratrol treatment. Specifically, depletion of RNF20 transformed spindle-shaped glioma cells into extremely enlarged and irregular flatten-shaped ones (data not shown).

[6] = tested on: U87 glioma cells; test: Senescence-associated-β-galactosidase (SA-β-gal) staining; type: cell-based, human; conditions: resveratrol-induced hypertrophic cells
Method: (§4) Senescence-β-galactosidase staining was performed with a kit (Cat. #9860, Cell Signaling, Danvers, Mass.) according to manufacturer's protocol. Briefly, cells in 35 mm well were washed with 2 mL PBS, fixed for 10-15 minutes in 2 mL fixative solution, washed twice with 2 mL PBS, and then incubated in SA-β-gal staining solution overnight at 37° C. To determine whether cellular hypertrophy induced by resveratrol was associated with cellular senescence of glioma cells, expression of senescence-associated-β-galactosidase (SA-β-gal) marker was tested (G. P. Dimri, et al., Proc Natl Acad Sci USA 92 (1995) 9363-7; G. P. Dimri, et al., Biol Signals 5 (1996) 154-62).

[7] = tested on: U118 glioma cells; test: as above; type: cell-based, human; conditions: resveratrol-induced hypertrophic cells
Method: as §4

[8] = tested on: mono-ubiquitination of histone H2B at K120 (uH2B); test: Western analysis of uH2B, acute (4-hour) resveratrol treatment; type: cell-based, human
Method: as §1, §2

[9] = tested on: U87 cells; test: Cell proliferation (viable cell count, Trypan blue exclusion); type: cell-based, human; conditions: cells counted at 3, 6 and 9 days post treatment, dose- and time-dependent
Method: (§5) U87 MG and U118 MG (hereafter abbreviated as U87, U118 respectively) human glioblastoma (glioma) cell lines were kindly provided by Dr. Hui Zhang and Dr. Hong Sun. MCF7 (human breast cancer), H1299 (non-small cell lung carcinoma), and PC3 (human prostate cancer) cell lines were obtained from Dr. Giuseppe Pizzorno. Normal human dermal fibroblasts, HDF and normal human mammary epithelial cells, HMEpC, were purchased from Cell Applications (San Diego, Calif.). U118, U87, and MCF7 cultures were grown in high-glucose DMEM supplemented with 10% Fetal Bovine Serum (FBS, HyClone, Waltham, Mass.) and 1% Penicillin/Streptomycin. H1299 was grown in RPMI with 10% FBS and 1% Pen/Strep. PC3 cells were in F12K Medium with 10% FBS and 1% antibiotics. […] Cell number was measured by a hemacytometer (Hausser Scientific, Horsham, Pa.). Cell population doubling time (Td) was calculated from the exponential portion of the growth curve using the equation Td=0.693t/ln(Nt/N0), where t is time, and Nt and N0 represent cell numbers at time t and initial time, respectively (Y. Zhang, et al., Cancer Res 62 (2002) 1205-12). […]
(§6) To examine the effects of resveratrol on glioma cells, 5×10^4 U87 or U118 glioblastoma (Grade IV glioma cell) lines were plated in 60 mm dishes. […] Cells were then trypsinized and cell numbers counted at 3, 6, and 9 days post treatment.

[10] = tested on: U118 cells; test: as above; type: cell-based, human; conditions: cells counted at 3, 6 and 9 days post treatment, dose- and time-dependent
Method: as §5, §6

[11] = tested on: U87 cells; test: Clonogenic assay (plating efficiency); type: cell-based, human; conditions: up to 9 days treatment, re-plated 1000-4000 cells, 14 days without resveratrol, dose-dependent
Method: (§7) Monolayer cultures of glioma cells were trypsinized and appropriate cell dilutions were re-plated. After 14 days, cultured cells were stained with 0.4% Coomassie Blue G250 in 50% methanol and 5% acetic acid. Colonies of 50 cells or more were counted. Plating efficiencies (PE) were calculated using the formula PE=(number of colonies counted/number of cells seeded)×100%. […] Monolayer cultures of glioma cells were trypsinized and seeded 1000, 2000, and 4000 cells separately in 60 mm culture dishes for incubation without further resveratrol treatment. After two weeks, these cell cultures were stained with 0.4% Coomassie Blue G250 in 50% methanol and 5% acetic acid. Colonies that contained more than 50 cells were counted. Cell clonogenicity was calculated with plating efficiencies (PE) using the formula PE=(number of colonies counted/number of cells seeded)×100%.

[12] = tested on: U118 cells; test: Clonogenic assay (plating efficiency); type: cell-based, human; conditions: up to 9 days treatment, re-plated 1000-4000 cells, 14 days without resveratrol, dose-dependent
Method: as §7

Oc1ccc(/C=C/c2cc(O)cc(O)c2)cc1 [resveratrol, 3,4′,5-trihydroxy-trans-stilbene]
uH2B level (Western) ([1]; U87, chronic treatment up to 9 days, 6, 20, 60 μM): inhibited uH2B
uH2B level (Western) ([1]; U118, chronic treatment up to 9 days, 6, 10, 20 μM): inhibited uH2B
cellular hypertrophy (cell volume and cell morphology) [2]: induced dramatic changes in cell volume and cell morphology
tumorigenicity (tumor volume) in xenograft model [3]: inhibited the tumorigenecity
tumorigenicity (tumor volume) in xenograft model [4]: inhibited the tumorigenecity
mean diameter of treated cells versus diameter parallel to the spindle axis of mock- or vehicle-treated cells [5]: 5 fold
cellular hypertrophy (cell volume and cell morphology) ([5]; resveratrol treatment): induced dramatic changes in cell volume and cell morphology
expression of SA-β-gal senescence marker [6]: SA-β-gal was detected
expression of SA-β-gal senescence marker [7]: SA-β-gal was detected
uH2B level (Western) ([8]; 10, 100, 500 μM for 4 h, U87, U118, MCF7, H1299, PC3, HDF, HMEpC): inhibited uH2B within 4 hours in a dose-dependent manner
uH2B level (Western) ([8]; acute incubation, high dose 500 μM): effective in inhibiting uH2B
proliferation of glioma cells (viable cell number) [9]: significantly inhibited proliferation
proliferation of glioma cells (viable cell number) [10]: significantly inhibited proliferation
clonogenicity (plating efficiency, colonies of more than 50 cells) [11]: marked decrease in their propensity for forming colonies
clonogenicity (plating efficiency, colonies of more than 50 cells) [12]: marked decrease in their propensity for forming colonies
